Results reported in paper PMC7144358, “Determination of KD025 (SLx-2119), a Selective ROCK2 Inhibitor, in Rat Plasma by High-Performance Liquid Chromatography-Tandem Mass Spectrometry and Its Pharmacokinetic Application” (Molecules, 2020).
Like-named read-outs stand apart in the source and are kept apart here.

What was measured:
[1] = Stability of stock solutions; assay type: physicochemical; conditions: KD025 200 ng/mL, IS 250 ng/mL; for Stock solution stability, concentration as % of fresh samples: room temperature for 4 h; for Stock solution stability: −20 °C for 4 weeks
Protocol: (§1) The stability of stock solutions of KD025 and IS was assessed by comparing the peak response of freshly prepared methanol/acetonitrile solution with that of the solution stored at room temperature for 4 hours or at −20 °C for 4 weeks of KD025 (200 ng/mL) and IS (250 ng/mL). The stability of QC samples in rat plasma at low, middle, high, and ultra-high concentrations was investigated in terms of short- and long-term stability, post-preparative stability, and freeze-thaw stability. Short-term stability was assessed by holding QC samples at the laboratory condition (room temperature) for 4 h, while QC samples were stored at −20 °C for 4 weeks to evaluate long-term stability. The post-preparative stability of processed samples stored in an autosampler (4 °C) was evaluated after 24 hours. Freeze-thaw stability was tested over three repeated cycles, in which QC samples were frozen at −20 °C and then thawed at room temperature. Peak area ratio changes of < 15% between stored and freshly prepared samples were considered as the criteria for the stability of samples [41].

[2] = set-up: method as in doi:10.1016/j.bbmt.2018.12.100, doi:10.1182/blood-2019-125986, doi:10.1097/01.HS9.0000564392.13730.a3; conditions: 54 patients, phase 2a; cited from earlier work
ROCK2 = test system: ROCK2; set-up: method as in PMID 26486225, PMID 21242007; conditions: cited from earlier work
[3] = Stability of KD025 in rat plasma under storage/handling conditions; assay type: in vitro ADME; conditions: for Stability (%), auto-sampler stability (24 h at 4 °C): processed rat plasma sample; for Stability (%), auto-sampler stability (24 h at 4 °C) / Stability (%), freeze-thaw stability (3 cycles) / Stability (%), long-term stability (4 weeks at −20 °C) / Stability (%), short-term stability (4 h at room temperature): n = 3
Protocol: as §1

[4] = Pharmacokinetic study after single oral and IV administration of KD025 to rats; assay type: in vivo, Sprague–Dawley rats; conditions: rat
Protocol: The feasibility of the developed LC/MS–MS method was examined by performing pharmacokinetic studies of KD025 in rats. Animal experiments were performed in accordance with the guide for the care and use of laboratory animals issued by the National Institutes of Health, as described previously. All experimental protocols were approved by the Animal Care and Use Committee of Gachon University (No. GIACUC-R2018014, approved on June 20th, 2018). Sprague–Dawley rats (8–9 weeks, 250–300 g, Nara Biotech, South Korea) were provided free access to food and water and maintained under 12 h light/dark cycles to adjust to the laboratory environment for a week before commencing the study. Rats were anesthetized by intramuscular injections (20 mg/kg) of Zoletil® (Vibrac, TX, USA) and cannulated by surgery to the femoral artery with polyethylene tubing (Clay Adams, NJ, USA) filled with heparinized saline (20 IU/mL) for blood sampling. After the rats had recovered from surgery, KD025 in a vehicle mixture (DMSO:Cremophor EL:PEG400:DDW = 5:10:40:50) was administered to rats at a dose of 5 mg/kg and 2 mg/kg for oral and IV administration, respectively. Blood samples (220 μL) were collected at 0 (blank), 1 (IV only), 5, 15, 30, 60, 120, 180, 240, 360, 480 and 1440 (oral only) min after KD025 administration and equal volumes of saline were injected for compensation of fluid loss. Plasma was separated from other components of blood by centrifugation at 14,000 rpm for 15 min at 4 °C and then was stored at −20 °C until analysis.
For sample preparation, 100 μL of IS in acetonitrile solution (250 ng/mL) was added to 50 μL of plasma samples, followed by vortex-mixing in 1 min for deproteinization. Samples were then centrifuged at 14,000 rpm for 15 min at 4 °C, and 100 μL aliquots of the supernatant were collected for analysis, as described in Section 3.2. The plasma peak concentration (Cmax) and time to reach Cmax (Tmax) were directly determined from each individual plasma concentration–time profile. Other pharmacokinetic parameters were calculated using WinNonlin® 3.1 software (Pharsight, Cary, NC, USA) by a non-compartmental method, as described previously. Results are presented as means ± standard deviations.

[5] = human, in vivo, po; cited from earlier work
[6] = set-up: method as in PMID 28389592; conditions: 38 patients with psoriasis, oral administration, phase 2; cited from earlier work
[7] = rat plasma, UHQC 8000 ng/mL diluted 10 times to 800 ng/mL
[8] = Sprague-Dawley, plasma, IV 2 mg/kg, n = 5
[9] = Sprague-Dawley, plasma, PO 5 mg/kg, n = 5

With `CC1=C(C(=O)Nc2cc3cn[nH]c3cc2F)C(c2ccc(C(F)(F)F)cc2)CC(=O)N1` (stereo not drawn) [IS] the “Stock solution stability, concentration as % of fresh samples” value [1] was 100.0% and the Stock solution stability [1] was 91.1%.
In the case of `CC(C)NC(=O)COc1cccc(-c2nc(Nc3ccc4[nH]ncc4c3)c3ccccc3n2)c1` [KD025, 2-(3-(4-((1H-Indazol-5-yl)amino)quinazolin-2-yl)phenoxy)-N-isopropylacetamide], the “Clinical response in chronic graft-versus-host disease” value [2] is given as “clinically meaningful responses with little toxicity and reductions in corticosteroid doses”, the “Selectivity for ROCK2 than ROCK1” value (ROCK2) is given as 100 fold and the “Stability (%), auto-sampler stability (24 h at 4 °C)” value (shortened to “Stability (%) … (24 h at 4 °C)”) ([3]; 1 ng/mL) is given as 112.1 ± 2.0%. The “Stability (%) … (24 h at 4 °C)” value ([3]; 3 ng/mL) was 100.2 ± 0.2%, the “Stability (%) … (24 h at 4 °C)” value ([3]; 40 ng/mL) was 102.0 ± 1.3% and the “Stability (%) … (24 h at 4 °C)” value ([3]; 400 ng/mL) was 98.1 ± 2.1%. The “Stability (%) … (24 h at 4 °C)” value ([3]; 800 ng/mL) was 101.1 ± 0.8%, the “Stability (%) … (24 h at 4 °C)” value ([3]; UHQC 8000 ng/mL diluted 10 times to 800 ng/mL) was 103.3 ± 3.2% and the “Short-term stability, peak area ratio vs freshly prepared samples” value ([3]; rat plasma at room temperature (4 h), range over QC and UHQC concentrations) was 92.8–100.5%. The “Long-term stability, peak area ratio vs freshly prepared samples” value ([3]; rat plasma at −20 °C (4 weeks), range over QC and UHQC concentrations) was 95.8–109.9%, the “Stability (%), freeze-thaw stability (3 cycles)” value ([3]; rat plasma, 1 ng/mL) was 114.1 ± 1.5% and the “Stability (%), long-term stability (4 weeks at −20 °C)” value (shortened to “Stability (%), long-term stability”) ([3]; rat plasma, 1 ng/mL) was 95.8 ± 3.7%. The “Stability (%), short-term stability (4 h at room temperature)” value (“Stability (%), short-term stability” for short) ([3]; rat plasma, 1 ng/mL) was 92.8 ± 5.0%, the “Stability (%), freeze-thaw stability (3 cycles)” value ([3]; rat plasma, 3 ng/mL) was 108.7 ± 3.4% and the “Stability (%), long-term stability” value ([3]; rat plasma, 3 ng/mL) was 104.9 ± 6.0%. The “Stability (%), short-term stability” value ([3]; rat plasma, 3 ng/mL) was 93.0 ± 1.3%, the “Stability (%), freeze-thaw stability (3 cycles)” value ([3]; rat plasma, 40 ng/mL) was 110.1 ± 6.5% and the “Stability (%), long-term stability” value ([3]; rat plasma, 40 ng/mL) was 106.3 ± 3.0%. For the same molecule, the “Stability (%), short-term stability” value ([3]; rat plasma, 40 ng/mL) was 94.0 ± 1.6%, the “Stability (%), freeze-thaw stability (3 cycles)” value ([3]; rat plasma, 400 ng/mL) was 103.3 ± 3.3% and the “Stability (%), long-term stability” value ([3]; rat plasma, 400 ng/mL) was 109.9 ± 2.2%. For the same molecule, the “Stability (%), short-term stability” value ([3]; rat plasma, 400 ng/mL) was 99.0 ± 0.6%, the “Stability (%), freeze-thaw stability (3 cycles)” value ([3]; rat plasma, 800 ng/mL) was 109.3 ± 5.3% and the “Stability (%), long-term stability” value ([3]; rat plasma, 800 ng/mL) was 106.4 ± 1.1%. For the same molecule, the “Stability (%), short-term stability” value ([3]; rat plasma, 800 ng/mL) was 93.6 ± 1.8%, the “Stability (%), freeze-thaw stability (3 cycles)” value [3, 7] was 114.3 ± 2.2% and the “Stability (%), long-term stability” value [3, 7] was 98.6 ± 0.5%. For the same molecule, the “Stability (%), short-term stability” value [3, 7] was 100.5 ± 2.5%, the “Peak area ratio vs fresh samples after three freeze-thaw cycles” value ([3]; rat plasma, range over five QC and UHQC concentrations) was 103.3–114.3% and the “Post-preparative stability, peak area ratio” value ([3]; samples stored in autosampler at 4 °C (24 h), range over QC and UHQC concentrations) was 98.1–112.1%. For the same molecule, the AUC(0-t) [4, 8] was 872 ng·h/mL, the MRT [4, 8] was 0.773 h and the clearance [4, 8] was 38.9 ± 6.2 mL/min/kg. It also gave a half-life [4, 8] of 1.47 ± 0.332 h, a Cmax ([4]; Sprague-Dawley, plasma, IV 2 mg/kg, n = 5, C0 estimated by noncompartmental analysis, read-out: Cmax (C0)) of 4420 ± 1210 ng/mL and a Vd ([4]; Sprague-Dawley, plasma, IV 2 mg/kg, n = 5, read-out: Vss) of 1.78 ± 0.287 L/kg. It also gave an AUC(0-t) [4, 9] of 763 ng·h/mL, an MRT [4, 9] of 7.91 h and a half-life [4, 9] of 5.89 ± 2.82 h. It also gave a Tmax ([4]; Sprague-Dawley, plasma, PO 5 mg/kg, n = 5, mean ± SD) of 2.2 h, a Cmax ([4]; Sprague-Dawley, plasma, PO 5 mg/kg, n = 5, mean ± SD, read-out: Cmax) of 128 ± 74.7 ng/mL and an AUC(0-inf) ([4]; Sprague-Dawley, plasma, iv, 2 mg/kg, IV 2 mg/kg, n = 5) of 812 ng·h/mL. For the same molecule, the bioavailability ([4]; Sprague-Dawley, plasma, oral, PO 5 mg/kg vs IV 2 mg/kg, AUC∞PO/AUC∞IV × 100) was about 37%, the AUC(0-inf) ([4]; Sprague-Dawley, plasma, po, 5 mg/kg, PO 5 mg/kg, n = 5) was 877 ng·h/mL and the “AUClast to AUC∞ ratio” value ([4]; IV 2 mg/kg) was 99.2%. For the same molecule, the “AUC∞ /Dose” value ([4]; IV 2 mg/kg, n = 5) was 26.3 ± 5.0 μg∙min/mL/[mg/kg], the “AUC∞” value ([4]; IV 2 mg/kg, n = 5, 2 mg/kg) was 52.7 ± 10.0 µg·min/mL and the “AUC∞ /Dose” value ([4]; PO 5 mg/kg, n = 5) was 9.7 ± 2.4 μg∙min/mL/[mg/kg]. The “AUC∞” value ([4]; PO 5 mg/kg, n = 5, 5 mg/kg) was 48.7 ± 11.8 µg·min/mL, the “AUClast to AUC∞ ratio” value ([4]; oral 5 mg/kg) was 94.0% and the Tolerability [5] was “well tolerated and produced no significant adverse events, including cardiovascular side effects”. The “Clinical effect in psoriasis” value [6] was “reduced psoriasis area, normalized skin pathology, and down-regulated serum IL-17 and IL-23 cytokines”, the Tolerability [6] was “well tolerated, with no serious side effects” and the “Stock solution stability, concentration as % of fresh samples” value [1] was 89.6%. For the same molecule, the Stock solution stability [1] was 95.4%.
